ChEMBL document CHEMBL1201862, “PubChem BioAssay data set” (2004)
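Each compound was tested at five concentrations against cells in 96-well plates for 48 hours. The concentration for 50% growth inhibition is given as GI50.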 Activity calls are given as the source filed them. No stated cut-off is given here; in the data, active = GI50 up to about 1.1 µM and inactive = higher.

Assays:
Assay in all cases: growth of human tumour cells (NCI), 48 h
NCI-H460 = test system: NCI-H460
COLO 205 = test system: COLO 205
RPMI-8226 = test system: RPMI-8226
786-0 = test system: 786-0
SK-OV-3 = test system: SK-OV-3
MDA-MB-231 = test system: MDA-MB-231
HCT-15 = test system: HCT-15
SK-MEL-28 = test system: SK-MEL-28
SNB-19 = test system: SNB-19
M14 = test system: M14
PC-3 = test system: PC-3
NCI/ADR-RES = test system: NCI/ADR-RES
HOP-62 = test system: HOP-62
SNB-75 = test system: SNB-75
IGROV-1 = test system: IGROV-1
Hs-578T = test system: Hs-578T
TK-10 = test system: TK-10
DU-145 = test system: DU-145
KM12 = test system: KM12
MDA-MB-435 = test system: MDA-MB-435
MDA-N = test system: MDA-N
RXF 393 = test system: RXF 393
NCI-H522 = test system: NCI-H522
SR = test system: SR
HT-29 = test system: HT-29
T47D = test system: T47D
EKVX = test system: EKVX
ACHN = test system: ACHN
SF-268 = test system: SF-268
K562 = test system: K562
BT-549 = test system: BT-549
OVCAR-5 = test system: OVCAR-5
SW-620 = test system: SW-620
Malme-3M = test system: Malme-3M
SK-MEL-2 = test system: SK-MEL-2
HCC 2998 = test system: HCC 2998
NCI-H226 = test system: NCI-H226
A498 = test system: A498
A549 = test system: A549
MOLT-4 = test system: MOLT-4
CAKI-1 = test system: CAKI-1
HL-60 = test system: HL-60
SN12C = test system: SN12C
U-251 = test system: U-251
NCI-H23 = test system: NCI-H23
LOX IMVI = test system: LOX IMVI
UO-31 = test system: UO-31
HCT-116 = test system: HCT-116
MCF7 = test system: MCF7
UACC-257 = test system: UACC-257
OVCAR-3 = test system: OVCAR-3
OVCAR-4 = test system: OVCAR-4
OVCAR-8 = test system: OVCAR-8
SK-MEL-5 = test system: SK-MEL-5
CCRF-CEM = test system: CCRF-CEM
SF-295 = test system: SF-295
HOP-92 = test system: HOP-92
UACC-62 = test system: UACC-62
SF-539 = test system: SF-539

## CN1C(=O)C23CC4=CC=CC(O)C4N2C(=O)C1(CO)SS3 (configuration not stated)
NCI-H460
  GI50: 94.8 nM (active)
COLO 205
  GI50: 52.4 nM (active)
RPMI-8226
  GI50: 163 nM (active)
786-0
  GI50: 84 nM (active)
SK-OV-3
  GI50: 1260 nM (inactive)
MDA-MB-231
  GI50: 199 nM (active)
HCT-15
  GI50: 84.5 nM
SK-MEL-28
  GI50: 507 nM (active)
SNB-19
  GI50: 553 nM (active)
M14
  GI50: 50.6 nM (active)
PC-3
  GI50: 167 nM (active)
NCI/ADR-RES
  GI50: 22.4 nM (active)
HOP-62
  GI50: 182 nM (active)
SNB-75
  GI50: 210 nM (active)
IGROV-1
  GI50: 145 nM (active)
Hs-578T
  GI50: 390 nM (active)
TK-10
  GI50: 179 nM (active)
DU-145
  GI50: 157 nM (active)
KM12
  GI50: 99.1 nM (active)
MDA-MB-435
  GI50: 224 nM (active)
MDA-N
  GI50: 188 nM (active)
RXF 393
  GI50: 179 nM (active)
NCI-H522
  GI50: 169 nM (active)
SR
  GI50: 29.1 nM (active)
HT-29
  GI50: 18.8 nM (active)
T47D
  GI50: 183 nM (active)
EKVX
  GI50: 368 nM (active)
ACHN
  GI50: 174 nM (active)
SF-268
  GI50: 207 nM (active)
K562
  GI50: 139 nM (active)
BT-549
  GI50: 291 nM (active)
OVCAR-5
  GI50: 52.6 nM (active)
SW-620
  GI50: 237 nM (active)
Malme-3M
  GI50: 223 nM (active)
SK-MEL-2
  GI50: 220 nM (active)
HCC 2998
  GI50: 155 nM (active)
NCI-H226
  GI50: 89.1 nM (active)
A498
  GI50: 234 nM (active)
A549
  GI50: 171 nM (active)
MOLT-4
  GI50: 134 nM (active)
CAKI-1
  GI50: 308 nM (active)
HL-60
  GI50: 22.3 nM (active)
SN12C
  GI50: 70.5 nM (active)
U-251
  GI50: 153 nM (active)
NCI-H23
  GI50: 167 nM (active)
LOX IMVI
  GI50: 170 nM (active)
UO-31
  GI50: 565 nM (active)
HCT-116
  GI50: 107 nM (active)
MCF7
  GI50: 160 nM (active)
UACC-257
  GI50: 299 nM (active)
OVCAR-3
  GI50: 199 nM (active)
OVCAR-4
  GI50: 223 nM (active)
OVCAR-8
  GI50: 61.1 nM (active)
SK-MEL-5
  GI50: 173 nM (active)
CCRF-CEM
  GI50: 20.5 nM (active)
SF-295
  GI50: 181 nM (active)
HOP-92
  GI50: 165 nM (active)
UACC-62
  GI50: 179 nM (active)
SF-539
  GI50: 20.4 nM (active)

## CC1=C(C(=O)OC2CC3CCC2(C)C3(C)C)C2Nc3ccccc3N(C)C2O1 (configuration not stated)
NCI-H460
  GI50: 1600 nM (inactive)
COLO 205
  GI50: 918 nM (active)
RPMI-8226
  GI50: 2170 nM (inactive)
786-0
  GI50: 2510 nM (inactive)
SK-OV-3
  GI50: 4430 nM (inactive)
MDA-MB-231
  GI50: 3010 nM (inactive)
HCT-15
  GI50: 2010 nM
SK-MEL-28
  GI50: 5020 nM (inactive)
SNB-19
  GI50: 3480 nM (inactive)
M14
  GI50: 1630 nM (inactive)
PC-3
  GI50: 2520 nM (inactive)
NCI/ADR-RES
  GI50: 2990 nM (inactive)
HOP-62
  GI50: 3840 nM (inactive)
SNB-75
  GI50: 3430 nM (inactive)
IGROV-1
  GI50: 1770 nM (inactive)
Hs-578T
  GI50: 3260 nM (inactive)
TK-10
  GI50: 4070 nM (inactive)
DU-145
  GI50: 1470 nM (inactive)
KM12
  GI50: 2430 nM (inactive)
MDA-MB-435
  GI50: 1540 nM (inactive)
MDA-N
  GI50: 1770 nM (inactive)
RXF 393
  GI50: 2630 nM (inactive)
NCI-H522
  GI50: 1930 nM (inactive)
SR
  GI50: 1190 nM (inactive)
HT-29
  GI50: 1560 nM (inactive)
T47D
  GI50: 3040 nM (inactive)
EKVX
  GI50: 5120 nM (inactive)
ACHN
  GI50: 2740 nM (inactive)
SF-268
  GI50: 4800 nM (inactive)
K562
  GI50: 3660 nM (inactive)
BT-549
  GI50: 2340 nM (inactive)
OVCAR-5
  GI50: 7100 nM (inactive)
SW-620
  GI50: 2140 nM (inactive)
SK-MEL-2
  GI50: 2350 nM (inactive)
HCC 2998
  GI50: 1660 nM (inactive)
NCI-H226
  GI50: 4300 nM (inactive)
A498
  GI50: 6120 nM (inactive)
A549
  GI50: 2050 nM (inactive)
MOLT-4
  GI50: 1840 nM (inactive)
CAKI-1
  GI50: 2950 nM (inactive)
HL-60
  GI50: 2100 nM (inactive)
SN12C
  GI50: 1780 nM (inactive)
U-251
  GI50: 3580 nM (inactive)
NCI-H23
  GI50: 2390 nM (inactive)
LOX IMVI
  GI50: 1710 nM (inactive)
UO-31
  GI50: 2500 nM (inactive)
HCT-116
  GI50: 2790 nM (inactive)
MCF7
  GI50: 2360 nM (inactive)
UACC-257
  GI50: 1790 nM (inactive)
OVCAR-3
  GI50: 2240 nM (inactive)
OVCAR-4
  GI50: 1670 nM (inactive)
OVCAR-8
  GI50: 2370 nM (inactive)
SK-MEL-5
  GI50: 1690 nM (inactive)
CCRF-CEM
  GI50: 2040 nM (inactive)
SF-295
  GI50: 1720 nM (inactive)
HOP-92
  GI50: 3220 nM (inactive)
UACC-62
  GI50: 1980 nM (inactive)
SF-539
  GI50: 3040 nM (inactive)
